These results are taken from US20080219917A1, “HARMONIZED WATER AND AQUEOUS SOLUTIONS” (DVB GLOBAL, priority 2007, published 2008).

The subject of data set [1] is human dermal fibroblasts, human liver carcinoma cells (HepG2), and neuronal human astrocytes. Conditions: same experiments (Sayes, 2004); cited from earlier work.
A further data set deals with Salmonella typhimurium. Briefly: Salmonella typhimurium reverse mutation assay (AMES test). The data set is classed as cell-based. The source says:
Toxicity test for harmonized, Modified Fullerenes has shown this substance is not cytotoxic when the material is subjected to a Salmonella typhimurium reverse mutation assay (AMES test). The Ames test is used to determine any potential mutagenic activity of the test HMF material. The HMF material was exposed to a large number of test organism in an agar plate. The agar plates were monitored for growth of revertants (organisms mutating to the wild type). The number of wild type organisms are counted to estimate the mutagenic potential of the HMF material.

Regarding C60(OH)24 [Modified Fullerenes], the cytotoxicity entry in data set [1] was “no cytotoxicity”.

Take [C60(OH)10-36]^Φ/φ [HMF]: in the data set on Salmonella typhimurium (Toxicity test, AMES test), the cytotoxicity entry is given as “not cytotoxic”. Moreover, the “mutagenic potential (growth of revertants)” value in the data set with Salmonella typhimurium (agar plate) is given as “not mutagenic”.
